The target in the assay is T1, bovine α-crystallin (Bos taurus, UniProt P02470+P02510).
T1 construct: gene CRYAA; native hetero-oligomer purified from bovine lenses (cows under two years), mixture of alphaA and alphaB subunits at about 3:1; no tag
T1 sequence (P02470 1-173): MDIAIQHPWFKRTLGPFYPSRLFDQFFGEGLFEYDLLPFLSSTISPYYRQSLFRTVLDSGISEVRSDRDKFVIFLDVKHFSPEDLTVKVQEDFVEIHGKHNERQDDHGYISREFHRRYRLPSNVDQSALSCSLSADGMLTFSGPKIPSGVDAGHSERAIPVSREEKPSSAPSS
T1 sequence (P02510 1-175): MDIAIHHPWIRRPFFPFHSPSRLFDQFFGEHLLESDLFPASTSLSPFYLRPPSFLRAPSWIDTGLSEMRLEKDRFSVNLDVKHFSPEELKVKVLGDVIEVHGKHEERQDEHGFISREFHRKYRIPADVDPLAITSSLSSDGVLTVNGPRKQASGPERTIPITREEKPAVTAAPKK
Nature of the assay: turbidity at […] nm of GdnHCl-induced aggregation at […] °C. The conditions noted are these: 5 µM timolol, protein 0.6 mg/mL, 0.1 M phosphate pH 7.4, 60 °C, enhancer of aggregation, direct binding not measured.

One compound from article PMC4157036, “Does Long-Term Administration of a Beta-Blocker (Timolol) Induce Fibril-Based Cataract Formation In-vivo?” (Iranian Journal of Pharmaceutical Research : IJPR, 2014) can be followed below.

With `CC(C)(C)NC[C@H](O)COc1nsnc1N1CCOCC1` [timolol], the “aggregation extent (fold)” value is listed as ~ 3 fold.
